“Also recorded” adds a separate entry of the source. Like-named read-outs stand apart in the source and are kept apart here.
Columns and labels:
[1] = tested on: HUVEC; test: HUVEC tube formation assay; assay type: cell-based, human; settings: 1 μM in 0.1% DMSO; for activity at 1 µM: Homo sapiens, HUVEC
Method: (§1) Human umbilical vein endothelial cells (HUVEC) were purchased from PromoCell. […] HUVEC and LEC were cultured in endothelial basal medium EBM (Cambrex) supplemented with 20% fetal bovine serum (Invitrogen), antibiotic-antimycotics (100 U/ml penicillin, 100 μg/ml streptomycin, 250 ng/ml amphotericin; Invitrogen). 2 mM L-glutamine (Invitrogen), 10 μg/ml hydrocortisone (Fluka) and 25 μg/ml N^6,2′-O-dibutyryladenosine 3′,5′-cyclic monophosphate sodium salt (Fluka) for up to eleven passages.
(§2) The effect of the selected chemicals on the formation of tube-like structures was performed as follows. […] After overnight incubation at 37° C. the treated cell cultures were fixed with 4% paraformaldehyde. Each chemical treatment was performed in triplicate and the experiment was repeated at least three times. Three representative images of hotspots with tube-like structures were taken per well using a digital camera (AxioCam MRm, Carl Zeiss) mounted on an inverted microscope (Axiovert 200M, Carl Zeiss). The length of the tube-like structures was measured using the IPLab software (BD Biosciences). For each experimental condition, results are represented as average total tube length (μm) per area (three image fields).
(§3) The effects of the selected compounds on endothelial tube formation was assessed after over treatment of LEC and HUVEC cultures at a compound concentration of 1 μM in 0.1% DMSO. The length of the tube-like structures was measured using the IPLab software.

[2] = tested on: blood vessel development and/or lymphangiogenesis in Xenopus embryos; assay type: in vivo, Xenopus laevis; settings: for blood vessel development phenotype (apj expression, in words): 20 μM from stage 31, fixed at stage 35/36; for lymph vessel development phenotype (vegfr3 expression, in words): 20 μM from stage 31, fixed at stage 42; for ALH phenotype: anterior lymph heart; for ALS phenotype: anterior lymph sac; for ISV phenotype: intersomitic vessels; for PCV phenotype: posterior cardinal vein; for PLV phenotype: posterior lymph vessels; for VVN phenotype: vitelline vein network
Method: All chemicals were purchased from Sigma and 10-mM stock solutions in DMSO were prepared. Chemicals were used at a final concentration of 20 μM in screening medium to treat homozygous albino Xenopus embryos, which lack natural pigmentation. Chemical treatments of embryos (n=7 per well) was initiated at stage 31 (37 hpf) and terminated at stages 35/36 (50 hpf) or 42 (80 hpf). Embryos were fixed in 4% paraformaldehyde and processed for whole mount in situ hybridization.
Where albino embryos were used, the bleaching step was omitted. Semi-automated whole mount in situ hybridizations were performed using the Biolane HTI machine (Hölle & Hüttner AG, Germany). […] Images were captured using a stereomicroscope (SteREO Lumar V12; Carl Zeiss) equipped with a digital camera (AxioCam Color; Carl Zeiss). Composite figures were organized and labeled using Adobe Photoshop CS2 and Adobe Illustrator CS software.
Edema formation or late-stage lethality may result from excretory system defects, (cardio)vascular and/or lymphatic vascular pathologies. […] Embryos were fixed for in situ hybridization either at stage 35/36 to analyze vasculogenesis and intersomitic vein angiogenesis defects or at stage 42 to evaluate possible defects in lymph vessel development (FIGS. 3-5).

[3] = tested on: LEC; test: LEC cell proliferation assay; assay type: cell-based, human; settings: 10 μM in 0.1% DMSO, 48 hours; for activity at 10 µM: Homo sapiens, 48 h, read-out: LEC proliferation
Method: as §1
(§4) The intensity of fluorescence, which is proportional to the number of viable cells, was measured using a microplate reader (SpectraMax Gemini EM; Molecular Devices). The chemical treatments were performed in five replicates.
(§5) The cell proliferation assays were performed by treating the endothelial cell cultures with compounds at a screening dose of 10 μM in 0.1% DMSO for 48 hours (FIG. 6a; Table 10).

[4] = tested on: HUVEC; test: HUVEC cell proliferation assay; assay type: cell-based, human; settings: 10 μM in 0.1% DMSO, 48 hours; for activity at 10 µM: Homo sapiens, HUVEC, 48 h, read-out: HUVEC proliferation
Method: as §1, §4, §5

[5] = tested on: Xenopus embryos; settings: for Lethality: — = no stage of lethality given; for Type of edema Ventral: ‡ = edemas also detected in the gut; for Onset (NF): onset of edema; for Embr. phen.: embryonic phenotype in the primary screen
In short: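 Stage 31 (37 hpf) Xenopus embryos, five per well, exposed to 20 µM compound in 1% DMSO at 23 °C for 4 days. Edema, lethality and other external phenotypes were scored daily by two investigators at stages 39, 41, 45 and 47.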

[6] = tested on: LEC; test: cells; assay type: cell-based, human; settings: for activity at 1 µM: Homo sapiens
Method: as §1, §2, §3

[7] = overnight, read-out: HUVEC tube formation
[8] = read-out: HUVEC tube formation (tube length)
[9] = compounds causing edema, 20 μM, 1% DMSO, treatment from stage 31, scored to stage 47
[10] = 20 μM, 1% DMSO, treatment from stage 31, Nieuwkoop & Faber stage
[11] = 1 μM in 0.1% DMSO, overnight, read-out: LEC tube formation
[12] = 1 μM in 0.1% DMSO, read-out: LEC tube formation (tube length)
[13] = 20 μM, 1% DMSO, treatment from stage 31

CCn1c(=O)c2[nH]c(-c3ccccc3)nc2n(CC)c1=O [1,3-Diethyl-8-phenylxanthine]
activity at 1 µM [1, 7]: 115 to 150% | activity at 1 µM [1, 8]: 123% | blood vessel development phenotype (apj expression, in words) [2]: hyperplasia of the VVN, while ISV angiogenesis occurred unaffected | lymph vessel development phenotype (vegfr3 expression, in words) [2]: lymphangiogenesis was largely suppressed | ALH phenotype ([2]; Xenopus embryos): stunted | ALS phenotype ([2]; Xenopus embryos): stunted | ISV phenotype ([2]; Xenopus embryos): normal | PCV phenotype ([2]; Xenopus embryos): normal | PLV phenotype ([2]; Xenopus embryos): hypoplastic | VVN phenotype ([2]; Xenopus embryos): hyperplastic | activity at 10 µM [3]: 85 to 115% | activity at 10 µM [4]: 85 to 115% | Lethality (NF) [5, 9]: 45 NF | Type of edema Pericordial ([5]; embryonic stage): 41/42 | Lethality ([5]; embryonic stage): 45 embryonic stages according to Nieuwkoop and Faber (NF) | Type of edema Ventral ([5]; embryonic stage): 41/42 | Onset (NF) [5, 10]: 41/42 | activity at 1 µM [6, 11]: 85 to 115% | activity at 1 µM [6, 12]: 90%

CCOC(=O)C1=C(C)NC(C)=C(C(=O)OC)C1c1cccc(Cl)c1Cl (stereo not drawn) [Felodipine]
activity at 1 µM [1, 7]: 50 to 85% | activity at 10 µM [3]: 85 to 115% | activity at 10 µM [4]: 85 to 115% | Lethality (NF) [5, 9]: 45 NF | Type of edema Pericordial ([5]; embryonic stage): 41/42 | Type of edema Pronephric ([5]; embryonic stage): 41/42 | Lethality ([5]; embryonic stage): 45 embryonic stages according to Nieuwkoop and Faber (NF) | Type of edema Ventral ([5]; embryonic stage): 41/42 | Onset (NF) [5, 10]: 41/42 | activity at 1 µM [6, 11]: 85 to 115%

CN(C)c1cc2c(Nc3ccc4c(cnn4Cc4ccccc4)c3)ncnc2cn1 [GW2974, N4-(1-Benzyl-1H-indazol-5-yl)-N6,N6-dimethyl-pyrido[3,4-d)pyrimidine4-4,6-diamine]
HUVEC tube formation ([1]; overnight): − (−, moderate inhibition (50-85% of control):) | lymph vessel development phenotype (vegfr3 expression, in words) [2]: inhibiting preferentially lymphatic vascular development; also recorded: lymphangiogenesis was largely suppressed | Blood vessel phenotype ([2]; Xenopus embryos): normal | ALH phenotype ([2]; Xenopus embryos): stunted | ALS phenotype ([2]; Xenopus embryos): impaired | PLV phenotype ([2]; Xenopus embryos): hypoplastic | edema or other phenotype in compound-treated Xenopus embryos/tadpoles (in words) [5, 13]: enlarged lymph hearts | Lethality (NF) [5, 9]: 47 NF | Embr. phen. [5]: EDE | Lymph heart enlargement ([5]; embryonic stage): 45 embryonic stages according to Nieuwkoop and Faber (NF) | Type of edema Pericordial ([5]; embryonic stage): 41/42 | Type of edema Periocular ([5]; embryonic stage, * = causing bulging eyes, # = bilateral, causing narrow-set eyes): 41/42 | Lethality ([5]; embryonic stage): 47 embryonic stages according to Nieuwkoop and Faber (NF) | Type of edema Ventral ([5]; embryonic stage): 41/42 | Onset (NF) [5, 10]: 41/42 | LEC tube formation ([6]; 1 μM in 0.1% DMSO, overnight): − (−, moderate inhibition (50-85% of control):)

O=C1Nc2ccc(I)cc2C1=Cc1cc(Br)c(O)c(Br)c1 [GW5074, 3-(3,5-Dibromo-4-hydroxybenzylidine-5-iodo-1,3-dihydro-indol-2-one)]
HUVEC tube formation ([1]; overnight): O (O, inactive or marginal effects (85-115% of control);) | blood vessel development phenotype (apj expression, in words) [2]: promoting ectopic, premature angiogenesis; also recorded: the VVN was dysplastic | ISV phenotype ([2]; Xenopus embryos): ectopic | PCV phenotype ([2]; Xenopus embryos): normal | VVN phenotype ([2]; Xenopus embryos): dyspiastic | HUVEC proliferation [4]: O (O, inactive or marginal effects (85-115% of control);) | Lethality (NF) [5, 9]: 41/42 | Embr. phen. [5]: EDE | Type of edema Pericordial ([5]; embryonic stage): 33/34 | Lethality ([5]; embryonic stage): 41/42 | Onset (NF) [5, 10]: 33/34 | effect on LEC tube formation (in words) ([6]; 1 μM in 0.1% DMSO): preferentially blocked tube formation in LEC rather than HUVEC cultures | LEC tube formation ([6]; 1 μM in 0.1% DMSO, overnight): − (−, moderate inhibition (50-85% of control):)

O=Nc1c(-c2c(O)[nH]c3ccccc23)[nH]c2ccccc12 [Indirubin-3′-oxime]
activity at 1 µM [1, 7]: 50 to 85% | activity at 10 µM [3]: 85 to 115% | activity at 10 µM [4]: 50 to 85% | Lethality (NF) ([5]; Xenopus laevis, in vivo): 45 NF | scored in the phenotypic Xenopus screens ([5]; in vivo): active | activity at 1 µM ([6]; read-out: LEC tube formation): 85 to 115%

Cl.c1ccc(CN2CCC3(CCCc4ccccc43)CC2)cc1 [L-687, 384 hydrochloride]
HUVEC tube formation ([1]; overnight): − (−, moderate inhibition (50-85% of control):) | blood vessel development phenotype (apj expression, in words) [2]: did not affect vascular development | LEC proliferation [3]: O (O, inactive or marginal effects (85-115% of control);) | HUVEC proliferation [4]: + (+, moderate promotion (>115-150% of control).) | LEC tube formation ([6]; 1 μM in 0.1% DMSO, overnight): − (−, moderate inhibition (50-85% of control):)

C#CCN1C(C)=C(C(=O)OC)C(c2cccc([N+](=O)[O-])c2)C(C(=O)OCC)=C1C (stereo not drawn) [MRS 1845, N-Propargylnitrendipene]
HUVEC tube formation ([1]; overnight): O (O, inactive or marginal effects (85-115% of control);) | LEC proliferation [3]: O (O, inactive or marginal effects (85-115% of control);) | edema or other phenotype in compound-treated Xenopus embryos/tadpoles (in words) [5, 13]: enlarged lymph hearts | Lethality (NF) [5, 9]: 45 NF | Lymph heart enlargement ([5]; embryonic stage): 41/42 | Type of edema Pericordial ([5]; embryonic stage): 41/42 | Type of edema Pronephric ([5]; embryonic stage): 41/42 | Lethality ([5]; embryonic stage): 45 embryonic stages according to Nieuwkoop and Faber (NF) | Type of edema Ventral ([5]; embryonic stage): 41/42 | Onset (NF) [5, 10]: 41/42 | effect on LEC tube formation (in words) ([6]; 1 μM in 0.1% DMSO): preferentially blocked tube formation in LEC rather than HUVEC cultures | LEC tube formation ([6]; 1 μM in 0.1% DMSO, overnight): − (−, moderate inhibition (50-85% of control):)

CC1=C(/C=C/C(C)=C/C=C/C(C)=C/C(=O)O)C(C)(C)CCC1 [Retinoic acid]
activity at 1 µM [1, 7]: 50 to 85% | activity at 1 µM [1, 8]: 50 to 85% | LEC proliferation [3]: + (+, moderate promotion (>115-150% of control).) | activity at 10 µM [3]: 115 to 150% | HUVEC proliferation [4]: + (+, moderate promotion (>115-150% of control).) | activity at 10 µM [4]: 115 to 150% | Lethality (NF) [5, 9]: 40 NF | Type of edema Proctodeal ([5]; embryonic stage): 40 embryonic stages according to Nieuwkoop and Faber (NF) | Type of edema Pronephric ([5]; embryonic stage): 39 embryonic stages according to Nieuwkoop and Faber (NF) | Type of edema Cerebral ([5]; embryonic stage, + = cerebral edema extending dorso-anteriorly and displacing the eyes): 39+ embryonic stages according to Nieuwkoop and Faber (NF) | Lethality ([5]; embryonic stage): 39 embryonic stages according to Nieuwkoop and Faber (NF) | activity at 1 µM [6, 11]: 50 to 85% | activity at 1 µM [6, 12]: 50 to 85%

Oc1c2ccccc2c2c3c(cccc13)N=N2 [SP600125, 1,9-Pyrazoloanthrone]
activity at 1 µM [1, 7]: 85 to 115% | activity at 1 µM [1, 8]: 110% | activity at 10 µM [3]: 85 to 115% | activity at 10 µM [4]: 85 to 115% | Lethality (NF) ([5]; compounds causing lethality, 20 μM, 1% DMSO, treatment from stage 31, Nieuwkoop & Faber stage): 41 NF | activity at 1 µM [6, 11]: 50 to 85% | activity at 1 µM [6, 12]: 59%

CC[C@@H]1/C=C/C=C/C[C@H](C)[C@H](O)[C@](C)(O)C(=O)[C@H](C)[C@@H](O)[C@H](C)C(=O)[C@H](C)[C@@H](O)[C@H](C)/C=C/C(=O)O[C@H]2[C@@H](C)[C@@H](CC1)O[C@@]1(CC[C@@H](C)[C@@H](C[C@H](C)O)O1)[C@@H]2C [oligomycin A]
effect on LEC tube formation (in words) ([6]; 1 μM in 0.1% DMSO): preferentially blocked tube formation in LEC rather than HUVEC cultures

From patent publication US9945845B2, “Methods of screening using amphibians” (priority 2009, dated 2018)
